Entries after “also recorded” stand apart in the source; their conditions may differ. Where two headings read alike, the source gives them in different places.
Key:
human A3AR [1] = molecular target: T1, human A3AR (Homo sapiens, UniProt P0DMS8); experiment: Radioligand binding assay, displacement of [3H]HEMADO in CHO cell membranes; conditions: for A1/A3: A3AR selectivity vs A1AR; for A1/A3 / A2A/A3: ratio of Ki values; for A2A/A3: A3AR selectivity vs A2AAR; for Ki: [3H]HEMADO, CHO membranes, mean ± S.E., n = 3-5, read-out: hA3R (Ki nM)
T1 sequence (P0DMS8 1-318): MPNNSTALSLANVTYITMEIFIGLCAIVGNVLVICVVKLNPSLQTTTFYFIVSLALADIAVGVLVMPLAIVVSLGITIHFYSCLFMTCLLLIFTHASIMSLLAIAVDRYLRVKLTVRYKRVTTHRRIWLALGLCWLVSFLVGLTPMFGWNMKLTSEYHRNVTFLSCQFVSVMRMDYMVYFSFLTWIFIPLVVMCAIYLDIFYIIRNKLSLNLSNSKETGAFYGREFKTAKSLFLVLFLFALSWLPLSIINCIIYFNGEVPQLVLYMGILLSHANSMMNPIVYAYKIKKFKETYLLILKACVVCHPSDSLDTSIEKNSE
Experimental: In the case of A2BAR, the potency of selected compounds was determined through a functional GloSensor cAMP assay.
(§1) All pharmacological methods followed the procedures as described earlier. In brief, membranes for radioligand binding were prepared from CHO cells stably transfected with human adenosine receptor subtypes through two centrifugations at different speeds. The first low-speed (1000 g) centrifugation allowed the removing of cell fragments and nuclei, while the second, performed at high speed (100,000 g), allowed the precipitation of the crude membrane fractions.
(§2) The binding affinity of the novel compounds was evaluated using radioligand competition experiments in CHO cells stably expressing hA1AR, hA2AAR, and hA3AR subtypes. […] Results were expressed as Ki values (dissociation constants), which were calculated with the program GraphPad (GraphPAD Software, San Diego, CA, USA). Each concentration was tested three–five times in duplicate and the values are given as the mean ± standard error (S.E.).

[2] = system: PC3 prostate cancer cell line; experiment: Sulforhodamine B (SRB) cell growth inhibition assay; conditions: for GI50 / CC50 / IC100: Homo sapiens, 48 h; for CC50: read-out: LC50 (μM); for IC100: read-out: TGI (μM); for TGI: PC3, 48 h, concentration to inhibit 100% of cell growth, mean ± SD
human recombinant A1AR [3] = molecular target: T2, human recombinant A1AR (Homo sapiens, UniProt P30542); experiment: Radioligand binding assay, displacement of [3H]CCPA in CHO cell membranes; conditions: mean ± S.E., n = 3-5, read-out: hA1R (Ki nM)
T2 sequence (P30542 1-326): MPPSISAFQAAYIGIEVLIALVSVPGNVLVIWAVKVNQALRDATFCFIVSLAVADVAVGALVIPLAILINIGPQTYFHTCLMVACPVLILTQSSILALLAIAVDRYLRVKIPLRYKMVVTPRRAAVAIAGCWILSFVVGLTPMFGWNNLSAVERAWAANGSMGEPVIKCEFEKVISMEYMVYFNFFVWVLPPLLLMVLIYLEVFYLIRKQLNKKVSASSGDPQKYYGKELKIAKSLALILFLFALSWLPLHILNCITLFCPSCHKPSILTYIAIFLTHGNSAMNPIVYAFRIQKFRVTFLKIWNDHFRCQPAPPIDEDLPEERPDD
Experimental: (§3) [^3H]CCPA (2-chloro-N^6-cyclopentylAdo), [^3H]NECA (5′-N-ethylcarboxamidoAdo), and [^3H]HEMADO (2-hexynyl-N^6-methylAdo) were used as respective radioligands. The results are reported as Ki values in nM (± standard errors) (Table 1). In the case of A2BAR, the potency of selected compounds was determined through a functional GloSensor cAMP assay.
as §1, §2

human recombinant A2AAR [4] = molecular target: T3, human recombinant A2AAR (Homo sapiens, UniProt P29274); experiment: Radioligand binding assay, displacement of [3H]NECA in CHO cell membranes; conditions: mean ± S.E., n = 3-5, read-out: hA2AR (Ki nM)
Experimental: as §3, §1, §2

human A3AR [5] = molecular target: T1, human A3AR; experiment: GloSensor cAMP accumulation assay (agonism/antagonism) at A3AR in CHO cells; assay type: cell-based; parameters: expressed in transfected cells; host or cells: CHO cells stably expressing A3AR and the GloSensor biosensor plasmid; conditions: for IC50: antagonism: counteracting agonist (NECA 1 μM) induced decrease of cAMP, forskolin 10 μM, mean ± S.E.; for functional behaviour at A3AR (agonist/antagonist): forskolin 10 µM stimulated cAMP, compared to Cl-IB-MECA
Experimental: CHO cells stable expressing A2B or A3ARs and the plasmid encoding the biosensor were used to study functional agonism and antagonism of understudy ligands. The desired cell number was incubated in equilibration medium containing a 3% v/v GloSensor cAMP reagent stock solution, 10% FBS and 87% of CO2 independent media. After 2 h of incubation, cells were dispensed in wells of 384 well plate and when a steady-state basal signal was obtained the agonism profile was studied, adding to wells the reference agonist NECA or compounds at different concentrations. In the case of the Gi coupled receptor A3AR Forskolin (FSK) 10 μM was added 10 min after the agonists and various luminescence readings were performed at different incubation times.
The antagonist profile of the compounds was evaluated by assessing their ability to counteract an agonist-induced increase or decrease (A2B and A3ARs, respectively) of cAMP accumulation. The cells were incubated with different antagonist concentrations and then treated with a fixed dose of NECA (10 μM for A2BAR and 1 μM for A3AR). FSK 10 μM was added 10 min after the agonists and various luminescence reads were performed at different incubation times.
Responses were expressed as percentage of the maximal relative luminescence units (RLU) and concentration–response curves were fitted by a nonlinear regression with the Prism program (GraphPAD Software, San Diego, CA, USA). The agonist or antagonist profile of compounds was expressed as EC50 or IC50, respectively. Each concentration was tested three–five times in duplicate and the values are given as the mean ± S.E.

[6] = system: human prostate (PC3), colon (Caco-2) and hepatocyte (Hep G2) carcinomas; parameters: method as in PMID 29763615; conditions: all three tumor cell lines PC3, Caco-2, Hep G2; cited from earlier work
human recombinant A2AAR [7] = molecular target: T3, human recombinant A2AAR; conditions: [3H]NECA, CHO membranes; read-out: hA2AR (Ki nM); cited from earlier work
human recombinant A1AR [8] = molecular target: T2, human recombinant A1AR; conditions: [3H]CCPA, CHO membranes; read-out: hA1R (Ki nM); cited from earlier work
human A3AR [9] = molecular target: T1, human A3AR; conditions: cited from earlier work
[10] = A3AR affinity repeated in Table 2, read-out: A3AR
[11] = [3H]HEMADO, CHO membranes, read-out: hA3R (Ki nM)

T3 sequence (P29274 whole entry): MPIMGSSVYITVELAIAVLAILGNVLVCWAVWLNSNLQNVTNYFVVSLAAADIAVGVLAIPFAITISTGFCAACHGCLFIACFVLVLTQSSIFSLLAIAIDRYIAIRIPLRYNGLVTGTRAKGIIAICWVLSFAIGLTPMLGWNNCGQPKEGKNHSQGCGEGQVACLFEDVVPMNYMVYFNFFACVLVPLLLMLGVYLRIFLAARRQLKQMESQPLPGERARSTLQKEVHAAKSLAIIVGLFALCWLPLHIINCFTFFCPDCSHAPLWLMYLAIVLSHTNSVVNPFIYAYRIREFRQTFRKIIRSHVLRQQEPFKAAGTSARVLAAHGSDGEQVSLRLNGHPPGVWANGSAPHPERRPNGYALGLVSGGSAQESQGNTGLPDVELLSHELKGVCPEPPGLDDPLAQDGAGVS

SMILES | A1/A3 (human A3AR [1]) [fold] | A2A/A3 (human A3AR [1]) | Ki (human A3AR [1]) [nM] | GI50 [2] [nM] | CC50 [2] [µM] | IC100 [2] [µM] | TGI [2] [nM] | Ki (human recombinant A1AR [3]) [nM] | Ki (human recombinant A2AAR [4]) [nM] | IC50 (human A3AR [5]) [nM] | functional behaviour at A3AR (agonist/antagonist) (human A3AR [5]) | cytotoxic activity ([2]; PC3, at concentrations up to 500 µM) | EC50 (human A3AR [5]) [nM] | anticancer effect (cell growth inhibition) [6] | Ki (human recombinant A2AAR [7]) [nM] | Ki (human recombinant A1AR [8]) [nM] | Ki (human A3AR [9]; [10]) [nM] | Ki (human A3AR [9]; [11]) [nM]
OC[C@H]1O[C@@H](n2cnc3c(NCCc4ccccc4)nc(C#Cc4ccccc4)nc32)[C@H](O)[C@@H]1O [Compound 11, 2-Phenylethynyl-N^6-(2-phenethyl)adenosine] | 213 | 785 fold | 3.8 ± 0.6 | 2500 ± 800 | 151 ± 8.9 | 19 | 19000 ± 6100 | 809 ± 117 | 2980 ± 271 | 79 ± 15 | antagonists |  |  |  |  |  |  | 
CCCCC#Cc1nc(NCCc2ccccc2)c2ncn([C@@H]3O[C@H](CO)[C@@H](O)[C@H]3O)c2n1 [Compound 10, 2-Hexynyl-N^6-(2-phenylethyl)adenosine] | 86 | 97 fold | 1.5 ± 0.3 | 13000 ± 1600 | 452 ± 10.5 | 77 | 77000 ± 2900 | 129 ± 8.2 | 146 ± 48 | 31 ± 6 | antagonists |  |  |  |  |  |  | 
OC[C@H]1O[C@@H](n2cnc3c(NCCc4ccccc4)nc(I)nc32)[C@H](O)[C@@H]1O [Compound 8, 2-Iodo-N^6-(2-phenylethyl)adenosine] | 29 | 824 fold | 5 ± 1.2 | 42000 ± 2700 | 301 ± 13.4 | 113 | 113000 ± 6700 | 144 ± 32 | 4120 ± 998 |  |  |  |  |  |  |  |  | 
OC[C@H]1O[C@@H](n2cnc3c(NCCc4ccccc4)nc(Cl)nc32)[C@H](O)[C@@H]1O [Compound 15, 2-Chloro-N^6-(2-phenylethyl)adenosine] | 68 | 27,500 fold | 0.024 ± 0.005 | 51000 ± 5200 | > 500 | 262 | 262000 ± 8300 | 1.64 ± 0.37 | 660 ± 129 |  | full A3AR agonist; also recorded: A3AR full agonists | no cytotoxic activity | 14 ± 3.4 |  |  |  |  | 
CCCCC#Cc1nc(NCC(c2ccccc2)c2ccccc2)c2ncn([C@@H]3O[C@H](CO)[C@@H](O)[C@H]3O)c2n1 [Compound 4, 2-Hexynyl-N^6-(2,2-diphenylethyl)adenosine] | 36 | 6 fold |  | 16000 ± 500 | 80 ± 9.8 | 35 | 35000 ± 1500 |  |  | 380 ± 80 | antagonists |  |  | very good antitumor activity | 153 | 984 | 27 | 27
OC[C@H]1O[C@@H](n2cnc3c(NCCc4ccccc4)nc(NCCc4ccccc4)nc32)[C@H](O)[C@@H]1O [Compound 5, 2-Phenylethylamino-N^6-(2-phenylethyl)adenosine] | 1082 | 4145 fold |  | 237000 ± 9400 | > 500 | > 500 | >500000 |  |  |  |  |  |  | very good antitumor activity | 1370 | 357 | 0.33 | 0.33

— article PMC8879107, “A3 Adenosine Receptor Antagonists with Nucleoside Structures and Their Anticancer Activity” (Pharmaceuticals, 2022)
